Target: T1, Aurora-2 (Homo sapiens, UniProt O14965)
T1 sequence (O14965 1-403): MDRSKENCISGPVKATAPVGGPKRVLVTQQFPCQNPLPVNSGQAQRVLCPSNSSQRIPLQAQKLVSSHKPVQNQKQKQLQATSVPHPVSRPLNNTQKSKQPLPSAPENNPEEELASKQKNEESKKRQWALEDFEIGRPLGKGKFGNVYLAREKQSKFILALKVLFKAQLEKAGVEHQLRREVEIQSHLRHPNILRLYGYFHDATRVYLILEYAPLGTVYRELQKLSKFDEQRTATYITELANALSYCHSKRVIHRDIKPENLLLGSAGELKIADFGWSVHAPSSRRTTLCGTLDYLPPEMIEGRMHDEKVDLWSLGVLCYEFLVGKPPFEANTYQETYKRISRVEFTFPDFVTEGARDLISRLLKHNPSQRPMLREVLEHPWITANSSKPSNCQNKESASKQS
Test: Ki determination for the inhibition of Aurora-2 (coupled enzyme assay)
Assay type: biochemical
Settings: 70 nM Aurora-2, 800 μM peptide LRRASLG, 30° C.
Protocol: To an assay stock buffer solution containing 0.1 M HEPES 7.5, 10 mM MgCl2, 1 mM DTT, 25 mM NaCl, 2.5 mM phosphoenolpyruvate, […], 30 mg/ml pyruvate kinase, 10 mg/ml lactate dehydrogenase, 40 mM ATP, and 800 μM peptide (LRRASLG, American Peptide, Sunnyvale, Calif.) was added a DMSO solution of a compound of the present invention to a final concentration of 30 μM. The resulting mixture was incubated at 30° C. for 10 min. The reaction was initiated by the addition of 10 μL of Aurora-2 stock solution to give a final concentration of 70 nM in the assay. […] The Ki values were determined from the rate data as a function of inhibitor concentration.

- Ki: 100 to 1000 nM
Compound: Cc1cc(Nc2cc(-c3ccccc3)nc(Nc3ccccc3)n2)n[nH]1 [IIIc-1, (5-Methyl-2H-pyrazol-3-yl)-(6-phenyl-2-phenylamino-pyrimidin-4-yl)-amine]

Source: patent US6664247B2, “Pyrazole compounds useful as protein kinase inhibitors” (Vertex Pharmaceuticals Incorporated, priority 2000, dated 2003)
